Consider one molecule from paper PMC6940745 (International Journal of Molecular Sciences, 2019).

SMILES strings stand for the structures. pEC50: −log10 of the molar value. Where a SMILES comes first, the peptide text is derived from it. [ ]: non-standard residue; d: D form. The star is where a group is joined. Bz = O=C(c1ccccc1)*; NPr2 = CCCN(CCC)* Some results are limits rather than exact numbers.

The target of assay [1] is T1, human recombinant MC1 receptor (Homo sapiens, UniProt Q01726).
T1 construct: host or cells: CHO-K1
T1 sequence (Q01726 whole entry): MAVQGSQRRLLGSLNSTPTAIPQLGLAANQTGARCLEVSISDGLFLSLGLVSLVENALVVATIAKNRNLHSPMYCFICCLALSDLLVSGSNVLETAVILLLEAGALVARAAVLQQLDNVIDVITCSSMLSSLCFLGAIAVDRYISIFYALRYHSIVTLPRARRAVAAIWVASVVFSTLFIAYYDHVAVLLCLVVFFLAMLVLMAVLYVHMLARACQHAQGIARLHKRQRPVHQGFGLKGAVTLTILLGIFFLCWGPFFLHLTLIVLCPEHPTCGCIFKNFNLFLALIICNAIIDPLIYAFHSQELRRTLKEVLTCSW
The experiment in a line: MC1R activation, cAMP HTRF assay in CHO-K1 cells. In kind it is cell-based. On the procedure: (§1) MCR-activation assays were performed by means of a cAMP HTRF (homogeneous time resolved fluorescence) assay for Gs-coupled receptors (cAMP Gs dynamic kit, Cisbio bioassays, 62AM4PEC). CHO-K1 cells expressing human recombinant MC1 receptor (EuroscreenFast, Gosselies, Belgium) (or MC2R, MC3R, MC4R, MC5R) were grown prior to the test in media without antibiotic. They were detached by gentle flushing with PBS-EDTA (5 mM EDTA), recovered by centrifugation, and resuspended in assay buffer (5 mM KCl, 1.25 mM MgSO4, 124 mM NaCl, 25 mM HEPES, 13.3 mM Glucose, 1.25 mM KH2PO4, 1.45 mM CaCl2, 0.5 g/L BSA, supplemented with 1 mM IBMX). Dose response curves were performed in parallel with the reference compounds. For agonist test (96-well), 12 µL of cells were mixed with 12 µL of the test compound diluted at increasing concentrations in assay buffer, and then incubated for 30 min at room temperature. After addition of the lysis buffer and 1 h incubation, fluorescence signal was measured, according to the manufacturer’s specifications, with the homogeneous time resolved fluorescence (HTRF) kit.
On the technique in general: Time-resolved FRET reads energy transfer from a long-lived donor to a nearby acceptor.

The next assay deals with T2, MC2R (Homo sapiens, UniProt Q01718).
T2 construct: host or cells: CHO-K1
T2 sequence (Q01718 whole entry): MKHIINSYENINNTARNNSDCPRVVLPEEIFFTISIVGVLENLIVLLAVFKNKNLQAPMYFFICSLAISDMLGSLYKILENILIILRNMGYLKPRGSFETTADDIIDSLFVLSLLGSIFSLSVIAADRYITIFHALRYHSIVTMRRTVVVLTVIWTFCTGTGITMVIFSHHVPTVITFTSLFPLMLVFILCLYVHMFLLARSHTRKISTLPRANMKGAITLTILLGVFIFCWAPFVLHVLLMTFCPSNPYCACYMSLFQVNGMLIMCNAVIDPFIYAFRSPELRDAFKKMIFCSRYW
T2 sequence (Q8TCY5 whole entry partner): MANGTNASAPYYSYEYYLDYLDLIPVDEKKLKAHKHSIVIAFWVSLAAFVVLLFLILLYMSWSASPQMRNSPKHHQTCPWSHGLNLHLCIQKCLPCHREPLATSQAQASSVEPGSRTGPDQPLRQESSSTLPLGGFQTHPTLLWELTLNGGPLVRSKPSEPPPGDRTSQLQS
Briefly: MC2R activation, cAMP HTRF assay in CHO-K1 cells. The assay is classed as cell-based. The protocol: as §1

The next assay deals with T3, MC3R (Homo sapiens, UniProt P41968).
T3 construct: host or cells: CHO-K1
T3 sequence (P41968 whole entry): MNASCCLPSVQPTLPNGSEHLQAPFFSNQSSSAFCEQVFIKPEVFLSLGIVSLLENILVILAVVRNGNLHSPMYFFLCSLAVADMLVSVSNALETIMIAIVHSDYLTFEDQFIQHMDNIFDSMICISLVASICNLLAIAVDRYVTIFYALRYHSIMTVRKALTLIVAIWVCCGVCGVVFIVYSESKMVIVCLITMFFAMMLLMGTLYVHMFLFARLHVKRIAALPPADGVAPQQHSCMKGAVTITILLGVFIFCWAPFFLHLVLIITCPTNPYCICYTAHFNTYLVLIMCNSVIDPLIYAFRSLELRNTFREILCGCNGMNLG
Briefly: MC3R activation, cAMP HTRF assay in CHO-K1 cells. The settings on record: eight concentrations, 0.01 to 100,000 nM. The assay is classed as cell-based. On the procedure:
as §1

The next assay concerns the target T4, MC4R (Homo sapiens, UniProt P32245).
T4 construct: host or cells: CHO-K1
The experiment in a line: MC4R activation, cAMP HTRF assay in CHO-K1 cells. The assay is classed as cell-based. The note with it: eight concentrations, 0.01 to 100,000 nM. The protocol:
as §1

For another assay, the target named is T5, MC5R (Homo sapiens, UniProt P33032).
T5 construct: host or cells: CHO-K1
T5 sequence (P33032 whole entry): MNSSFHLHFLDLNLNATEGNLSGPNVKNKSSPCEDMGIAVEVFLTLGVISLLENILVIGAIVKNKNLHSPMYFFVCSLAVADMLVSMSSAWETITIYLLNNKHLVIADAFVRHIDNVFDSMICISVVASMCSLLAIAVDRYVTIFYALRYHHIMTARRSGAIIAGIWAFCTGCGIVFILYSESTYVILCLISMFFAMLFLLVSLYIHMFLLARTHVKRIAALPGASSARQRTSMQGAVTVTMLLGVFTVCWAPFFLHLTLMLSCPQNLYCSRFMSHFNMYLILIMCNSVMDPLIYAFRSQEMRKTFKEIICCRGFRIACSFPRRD
The experiment in a line: MC5R activation, cAMP HTRF assay in CHO-K1 cells. The assay is classed as cell-based. On the procedure:
as §1

A further assay has as its target T6, MT2R (Homo sapiens, UniProt P49286).
T6 construct: host or cells: CHO-K1 (membrane preparations)
The experiment in a line: MT2R activation, GTPγS scintillation proximity assay on CHO-K1 membranes. The assay is classed as biochemical. The settings on record: eight concentrations, 0.01 to 100,000 nM. On the procedure: Melatonin (MT1R and MT2R) and opioid receptor (OP1R, OP2R, and OP3R, corresponding to human delta, kappa, and mu opioid receptors) activation assays were performed by means of GTPγS scintillation proximity assays. For agonist testing, membrane preparations from CHO-K1 cells expressing each receptor (EuroscreenFast, Gosselies, Belgium) were mixed with guanosine diphosphate (GDP) (v/v). In parallel, GTPγ[^35S] (PerkinElmer, NEG030X, 0.1 nM final assay concentration) was mixed with PVT-WGA beads (Perkin Elmer, RPNQ001, 0.5 mg/well final assay density) (v/v) just before starting the reaction. The following reagents were then successively added in the wells of an Optiplate (Perkin Elmer): A total of 50 µL of test or reference ligand diluted in assay buffer, 10 µL of assay buffer (20 mM HEPES pH 7.4; 100–200 mM NaCl, 10 µg/mL saponin, MgCl2 at optimized concentration for the specific receptor, 0%–0.1% BSA), 20 µL of the membranes: GDP mix, and 20 µL of the GTPγ[^35S]: Beads mix. The plates were covered with a top seal, mixed on an orbital shaker for 2 min, and then incubated for 1 h at room temperature. Then the plates were centrifuged for 10 min at 2000 rpm, incubated at room temperature for 1 h, and counted for 1 min/well with a PerkinElmer TopCount™ reader.

The target of a further assay is human ETBR (Homo sapiens, UniProt P24530). Briefly: ETBR activation, Aequorin assay. The settings on record: eight concentrations, 0.01 to 100,000 nM. In kind it is cell-based. The protocol:
Melanin-concentrating hormone receptor (MCHR), endothelin-1 receptor (ETBR), and serotonin-receptor (5-HT2AR) assays were performed by means of Aequorin assays. Recombinant cells co-expressing human MCH1R, MCH2R, ETBR, or 5-HT2AR and mitochondrial apoaequorin (MCH1R, MCH2R and 5-HT2AR cells also co-express recombinant Gα16 protein) (EuroscreenFast, Gosselies, Belgium), grown 18 h prior to the test in media without antibiotics, were detached by gentle flushing with PBS-EDTA (5 mM EDTA), recovered by centrifugation, and resuspended in assay buffer (DMEM/HAM’s F12 with HEPES + 0.1% BSA protease free). Cells were incubated under agitation at room temperature for at least 4 h with Coelenterazine h (Promega, X300X, 0.5 µM final concentration). Dose response curves with the reference compounds were performed before testing the compounds. For agonist testing, 50 µL of cell suspension was injected on 50 µL of test compound or reference agonist diluted in assay buffer and plated in a 96-well plate. The resulting emission of light was recorded using the Hamamatsu Functional Drug Screening System 6000 (FDSS 6000). […] Agonist activity of test compound was expressed as a percentage of the activity of the reference agonist at its EC100 concentration.

Assay [2] concerns human abdominal skin ex vivo. Briefly: Stimulation of pigmentation in human abdominal skin ex vivo (Fontana-Masson melanin quantification). The assay is classed as cell-based. The note with it: topical. The protocol: Following declaration of Helsinki principles (DoH-Oct2013, World Medical Association, Ferney-Voltaire, France), human skin samples were obtained from elective plastic surgery after informed consent was obtained. For the two experiments shown in Figure 2, Figure 3 and Figure 4, we had one person with an individual topology angle (ITA°) of 18, and one person with an ITA° of 39 [69]. The skin samples were cut in pieces of 8 × 3 mm and cultured up to day 6. Skin samples were cultured in an air–liquid interface in a perforated ring of stainless steel in contact with culture medium (modified Williams’ E medium). The culture medium was renewed every three days (i.e., day 0–3). Compounds were added daily in DMSO at 4 µL volume. At day 6, the skin samples were fixed in formalin, embedded in paraplast, and cut at the microtome for histochemical staining and consequent image analysis. Six skin biopsies were used for each single treatment.
Two skin biopsies for each treatment were weighed and, in each case, reduced in the dermal portion, in order to have approximately the same weight for all of them. Samples were then washed and processed with methylthiazolyldiphenyl-tetrazolium bromide (MTT). The color intensity, that is directly proportional to skin vitality, was measured with a plate reader at a wavelength of 570 nm. For melanin quantification, skin sections were stained with a modified Fontana-Masson stain that dyes melanin argentaffin granules in black/dark grey. The amount of melanin present in each slide was evaluated by estimating grey intensity and distribution within the sections using ImageJ application (NIH-USA). Two slides of each skin sample were processed by image acquisition and related analysis (i.e., 12 images for each treatment).
Figure 2 Stimulation of pigmentation by MC1R-agonist peptides ex vivo. Melanin was quantified on skin sections using ImageJ software (NIH, USA). Human abdominal skin was topically treated with peptides at various concentrations for six days. * p < 0.05 vs vehicle by unpaired Student’s t-test. […]

Where [3] appears, read: eight concentrations, 0.01 to 100,000 nM.

T4 sequence (P32245 whole entry): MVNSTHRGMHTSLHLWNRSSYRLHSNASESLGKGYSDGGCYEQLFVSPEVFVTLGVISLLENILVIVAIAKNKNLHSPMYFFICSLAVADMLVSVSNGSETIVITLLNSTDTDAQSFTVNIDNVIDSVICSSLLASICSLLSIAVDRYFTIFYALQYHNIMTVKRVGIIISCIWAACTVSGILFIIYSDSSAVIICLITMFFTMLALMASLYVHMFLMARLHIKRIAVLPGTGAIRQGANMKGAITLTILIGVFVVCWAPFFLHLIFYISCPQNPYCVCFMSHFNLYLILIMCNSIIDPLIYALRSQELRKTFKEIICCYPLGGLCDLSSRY
T6 sequence (P49286 whole entry): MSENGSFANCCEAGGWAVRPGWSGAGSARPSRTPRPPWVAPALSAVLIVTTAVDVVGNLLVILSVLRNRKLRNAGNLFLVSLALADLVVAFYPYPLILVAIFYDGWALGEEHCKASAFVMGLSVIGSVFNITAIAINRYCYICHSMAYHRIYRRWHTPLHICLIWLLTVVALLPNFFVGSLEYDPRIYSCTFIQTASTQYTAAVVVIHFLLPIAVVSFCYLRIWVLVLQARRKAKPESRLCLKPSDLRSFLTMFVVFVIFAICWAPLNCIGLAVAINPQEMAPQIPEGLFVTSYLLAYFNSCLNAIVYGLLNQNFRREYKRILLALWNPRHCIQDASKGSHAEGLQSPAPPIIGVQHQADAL
Chain of human ETBR (P24530 27-442): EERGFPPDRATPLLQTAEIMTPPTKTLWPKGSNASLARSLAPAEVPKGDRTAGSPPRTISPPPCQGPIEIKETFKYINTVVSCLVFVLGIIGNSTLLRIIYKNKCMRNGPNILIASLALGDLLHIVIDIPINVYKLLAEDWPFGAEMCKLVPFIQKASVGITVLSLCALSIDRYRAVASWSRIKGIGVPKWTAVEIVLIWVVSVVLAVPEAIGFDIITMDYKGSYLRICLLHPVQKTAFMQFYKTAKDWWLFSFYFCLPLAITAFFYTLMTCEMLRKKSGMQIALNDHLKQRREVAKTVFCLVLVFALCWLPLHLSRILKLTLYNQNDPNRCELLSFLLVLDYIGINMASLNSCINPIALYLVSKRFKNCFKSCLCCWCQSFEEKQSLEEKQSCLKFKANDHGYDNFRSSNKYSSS

With `CCCN(CCC)C(=O)[C@@H](Cc1c[nH]c2ccccc12)NC(=O)[C@H](CCCNC(=N)N)NC(=O)[C@@H](Cc1ccccc1)NC(=O)[C@H](Cc1c[nH]cn1)NC(=O)CNC(=O)c1ccccc1` [Peptide 4] (Bz-GH[dF]R[dW]-NPr2), the pEC50 in assay [1] is 9.38; at MC2R (setting [3]) it was less than 4.00; on MC3R, 6.06; at MC4R, 6.87; at MC5R (setting [3]), less than 4.00; on MT2R it was less than 4.00. This molecule gave a pEC50 at human ETBR of less than 4.00. In addition, the “Activation of MC2R” value at MC2R (up to 100 µM) is “no significant activation”. In addition, at MC5R (up to 100 µM), the “Activation of MC5R” value is “no significant activation”. Also, the “Stimulation of pigmentation compared to vehicle-treated control tissue” value in assay [2] (200 µM peptide, six days) is reported as “up to 21%”. In assay [2] (human abdominal skin ex vivo), the “Concentration of optimal activity for pigmentation enhancement” value is given as 30 µM.

The term pEC50 denotes −log10 of the EC50, conventionally taken in molar units.
